# Measurements: patent publication US9783547B2, “Water soluble 4-azapodophyllotoxin analogs” (CENTRE NATIONAL DE LA RECHERCHE SCIENTIFIQUE (CNRS), priority 2014, dated 2017)
# “Also recorded” adds a separate entry of the source.
# Tests used:
# [1] = test system: EAhy 926 endothelial cell line; experiment: Endothelial cell morphology evaluation (rounding up); format: cell-based; conditions: Homo sapiens, EA.hy 926; 2 h incubation; rounding up of more than 15% of cells; read-out: Cmarr EA.hy 926: lowest concentration at which cell rounding up was observed
# From the text: To assess the effects of the compounds on the morphology of endothelial cells, the EAhy 926 endothelial cell line was used, which is derived from the fusion of human umbilical vein endothelial cells (HUVEC) with the permanent human cell line A549 (Edgell et al, Proc. Natl. Acad. Sci. U.S.A., 1983, vol 80, issue 12, 3734-3737). The EAhy 926 cell line is considered as a good representative of native HUVEC because it expresses most of the biochemical markers of parental HUVEC (Bouis et al., Angiogenesis., 2001, 4, 91-102). EAhy 926 cells were grown in DMEM containing 2 mM L-glutamine, 10% foetal bovine serum, 100 U/mL penicillin and 100 μg/mL streptomycin in a humidified atmosphere (37° C., 5% CO2). Exponentially growing EAhy 926 cells were plated onto 96 well plates at 5000 cells/100 μL/well. Twenty-four hours after plating, the medium was aspirated, and 100 μL of medium containing the test compound was added to the well containing the cells (in triplicate) and incubated for 2 h (37° C., 5% CO2). The highest concentration used was 100 μM followed by serial two-fold dilutions down to low nanomolar concentrations, if needed for the most morphologically active compounds. After the 2 h-incubation period, digital photographs were taken of representative centre areas of each well at a magnification of 100× and 200×. The results are presented as the minimum concentration that could elicit the rounding up of more than 15% of cells in a field in order to exclude normal mitotic cells which is less that 15% in control 1% DMSO treated cells. Triplicate concentrations on the same plate were routinely carried out. CA4 was included in the experiments as a positive internal standard.
# Compounds of the invention were first tested on EAhy 926 endothelial cells, which are transformed HUVEC (human umbilical vein endothelial cells). These cells undergo a rounding up upon a short 2 hour exposure to vascular disrupting agents, e.g. combretastatin A4.
# [2] = test system: Eahy 926 endothelial cells (preformed cords on Matrigel); experiment: Endothelial cell cords disruption assay; format: cell-based, human; conditions: 2 hour exposure
# Protocol: Eahy 926 endothelial cells were seeded onto a Matrigel layer in 6 well plates and allowed to form microvascular structures for 48 h (cords). […] In this experiment the control solvent used was 1% DMSO final concentration, because this solvent was required to solubilize combretastatin A4 used as a positive internal control. Digital photographs of the same plate region were taken before drug application and two hours after.
# Another typical effect of antivascular agents is the disruption of preformed cords of endothelial cells grown on a Matrigel layer.
# Lewis lung carcinoma = experiment: Antitumor activity in Lewis lung carcinoma bearing mice; conditions: for Drug death: deaths/animals; for Tumor Log10 cell kill: [(T − C)/3.32] × Td, Td 2.2 days
# Protocol: Animal body weights included the tumor weights.
# The percent T/C value is calculated as follows:
# colon 26 carcinoma = experiment: Antitumor activity in colon 26 carcinoma bearing mice; conditions: for Tumor Log10 cell kill: [(T − C)/3.32] × Td, Td 2 days
# [3] = 50 mg/kg i.p. days 4-8 and 11-15
# [4] = 55 mg/kg i.p. days 4-8 and 11-15
# [5] = 55 mg/kg i.p. days 4-8 and 11-15, hydrochloride
# [6] = 31 mg/kg i.p. days 4, 5, 11, 12, 14, 15
# [7] = 50 mg/kg i.p. days 4, 5, 11, 12, 14, 15
structure (smiles),measurement,setting,value
"COc1cc(Nc2c3c(nc4cc5c(cc24)OCO5)CCCC3=O)cc(OC)c1OC.Cl [SGR307.HCl, 6,7-(Methylenedioxy)-9-(3,4,5-trimethoxyphenylamino)-3,4-dihydroacridin-1(2H)-one, hydrochloride]",minimal effective concentration,[1],0.06 µM
same,Lowest concentration at which destruction of endothelial cords is observed,[2],0.5 µM
same,"T − C (day), tumor growth delay",Lewis lung carcinoma; [3],4.5 days
same,Time for median tumor to reach 500 mm^3,Lewis lung carcinoma; [3],14.1 days
same,T/C day 18 (%),Lewis lung carcinoma; [3],36.2%
same,Mean tumor volume (mm^3) on day 18 (range),"Lewis lung carcinoma; 50 mg/kg i.p. days 4-8 and 11-15, range 297-2230",1158 mm^3
same,Drug death,Lewis lung carcinoma; [3],0/5
same,Note (activity / toxicity assessment),"Lewis lung carcinoma; 50 mg/kg i.p. days 4-8 and 11-15, hydrochloride",not toxic; also recorded: highly active
same,Mean body wt change [g/mouse (day of nadir)],"Lewis lung carcinoma; 50 mg/kg i.p. days 4-8 and 11-15, nadir d6",−0.5 (d6) g/mouse
same,Tumor Log10 cell kill,"Lewis lung carcinoma; 50 mg/kg i.p., hydrochloride",3
same,Time for median tumor to reach 500 mm^3,Lewis lung carcinoma; [4],17.4 days
same,T/C day 18 (%),Lewis lung carcinoma; [4],19.3%
same,Mean tumor volume (mm^3) on day 18 (range),"Lewis lung carcinoma; 55 mg/kg i.p. days 4-8 and 11-15, range 457-806",619 mm^3
same,Drug death,Lewis lung carcinoma; [4],0/5
same,Note (activity / toxicity assessment),Lewis lung carcinoma; [5],not toxic; also recorded: highly active
same,"T − C (day), tumor growth delay",Lewis lung carcinoma; [5],7.8 days
same,Mean body wt change [g/mouse (day of nadir)],"Lewis lung carcinoma; 55 mg/kg i.p. days 4-8 and 11-15, nadir d8",−2.4 (d8) g/mouse
same,Tumor Log10 cell kill,Lewis lung carcinoma; 55 mg/kg i.p.,5.2
same,"T − C (day), tumor growth delay",colon 26 carcinoma; [6],7.7 days
same,Time for median tumor to reach 750 mg,colon 26 carcinoma; [6],21.2 days
same,% T/C day 15,colon 26 carcinoma; [6],15.4%
same,Mean tumor vol (mm^3) day 15,colon 26 carcinoma; [6],168 mm^3
same,Mean body wt change [g/mouse (day of nadir)],"colon 26 carcinoma; 31 mg/kg i.p. days 4, 5, 11, 12, 14, 15, nadir d6",−0.7 g/mouse
same,Tumor Log10 cell kill,colon 26 carcinoma; 31 mg/kg i.p.,4.6
same,"T − C (day), tumor growth delay",colon 26 carcinoma; [7],13.7 days
same,Time for median tumor to reach 750 mg,colon 26 carcinoma; [7],27.2 days
same,% T/C day 15,colon 26 carcinoma; [7],2.8%
same,Mean tumor vol (mm^3) day 15,colon 26 carcinoma; [7],31 mm^3
same,Mean body wt change [g/mouse (day of nadir)],"colon 26 carcinoma; 50 mg/kg i.p. days 4, 5, 11, 12, 14, 15, nadir d7",−2.6 g/mouse
same,Tumor Log10 cell kill,colon 26 carcinoma; 50 mg/kg i.p.,8.3
same,Body weight loss,"colon 26 carcinoma; 80 mg/kg i.p. days 4, 5, 11, 12, 14, 15",> 20%
same,Mean body wt change [g/mouse (day of nadir)],"colon 26 carcinoma; 80.6 mg/kg i.p. days 4, 5, 11, 12, 14, 15, nadir d14",−5.4 g/mouse
